Source: patent publication US20220110916A1, “Antioxidant and Use Thereof” (Bioradical Research Institute Corp., priority 2019, published 2022)

Experiments:
[1] = Storage stability in pH7.4-PBS or pure water at 37° C. protected from light, residual rate by HPLC; type: physicochemical; conditions: 200 μmol/l; for Residual rate (%) After 1 week / Residual rate (%) After 2 weeks: 37° C., protected from light; for Residual rate (%) Initial concentration: initial concentration (reference 100%)
Method: The storage stability of edaravone, EMPO, ED2AP, and BisEp-C3 of the following formula (A) were examined. Specifically, edaravone, EMPO, ED2AP, and BisEp-C3 were dissolved in pH7.4-PBS or pure water so as to have a final concentration of 200 μmol/l to prepare dissolved solutions of these compounds. When the compounds were difficult to be dissolved, they were dissolved in an ultrasonic cleaner with warm water at 40° C.
Under the measurement conditions for HPLC described below, the initial concentration was quantified, and then each solution was stored in an oven, which was protected from light, at 37° C., and quantified under the same measurement conditions after 1 week and 2 weeks, to determine residual rate (%) with the initial concentration (100%) being a reference.
Measurement conditions for HPLC
PDA detector (Format: SPD-M20A) HPLC Assay Conditions:
Column: Atlantis dC18 5 μm (250×4.6 mm I.D.; produced by Waters)
Column temperature: 45° C.
Detection method: UV (254 nm)
Eluate A: pH3 buffer solution (adjusted to pH3 by adding phosphoric acid to 0.05M KH2PO4 aqueous solution)/methanol=90/10

[2] = Water solubility noted at synthesis; type: physicochemical; conditions: crystal obtained in Example 1
Method: 3.58 g of 3-methyl-1-phenyl-5-pyrazolone (hereinafter, also referred to as “edaravone”), 2.59 g of malonaldehyde dianilide hydrochloride, and 20 ml of ethanol were added to a reactor and dissolved. To the obtained solution, 2.04 g of triethylamine and 0.4 ml of water were added and stirred for 1 hour at room temperature (about 25° C., hereinafter, the same applies). After the stirring, the resultant was further reacted for 1 hour at 50° C. After discharging the obtained reaction solution to 100 ml of 1N hydrochloric acid, the mixture was sufficiently stirred and the precipitate was filtered. The resulting cake was washed with water. The cake was added to 200 ml of an aqueous sodium hydroxide solution having a 1% by weight concentration and completely dissolved by heating with stirring. Next, the dissolved solution was stirred for 3 hours after cooling to room temperature. Then, the liquid containing the obtained precipitate was filtered, and then the cake was washed with water. […] Note that the melting point of ED2AP was 249° C., which was water-soluble.
3 ml of dimethylformamide was added to a reactor and the exterior of the reactor was cooled with ice water. 1.75 g of phosphorus oxychloride was slowly dropped into the reactor (Reaction Solution A). In another reactor, 1.78 g of edaravone was dissolved in 5 ml of dimethylformamide (Reaction Solution B). Under room temperature, the reaction solution B was slowly added to the reaction solution A, and the resulting mixture was allowed to react for 1 hour with the end of addition (Reaction Solution C) being a reference. In another reactor, 1.81 g of 3-methyl-1-phenyl-5-pyrazolone was added to 8 ml of chloroform and dissolved (Reaction Solution D). Under room temperature, the reaction solution C was slowly added to the reaction solution D, followed by stirring for 20 minutes and further stirring at 70° C. for 1 hour. To the resultant, 0.2 g of water was added and stirred for another 2 hours. The obtained reaction solution was discharged into 100 ml of water and extracted with a mixed solvent of toluene/ethyl acetate=1/1 (volume ratio). After condensation of the obtained extract, column purification was performed to obtain 2.92 g of yellow crystal of the compound of the formula (10) having the following physical properties.
1.00 g of edaravone, 0.72 g of paraformaldehyde, and 20 ml of formic acid were added to a reaction flask and stirred overnight for 20 hours at 70° C. The obtained reaction solution was discharged into 80 ml of water and extracted with a mixed solvent of toluene/ethyl acetate=1/1 (volume ratio). When the extract was condensed to about two-thirds, crystals were precipitated. Further, the resultant was cooled to room temperature, and sufficiently crystallized, and then filtered. The obtained cake was washed with toluene to obtain 0.88 g of pale yellow crystal of the compound of the formula (14) having the following physical properties.
In Example 1(1), synthesis was performed in the same manner as described above except that 3-methyl-1-ethyl-5-pyrazolone was used instead of edaravone to obtain red crystal of BisEp-C3 having the following physical properties. Note that BisEp-C3 was water-soluble.
In Example 1(2), synthesis was performed in the same manner as described above except that 3-methyl-1-ethyl-5-pyrazolone was used instead of edaravone to obtain yellow crystal of BisEp-C1 having the following physical properties. Note that BisEp-C1 was water-soluble.
In Example 1(3), synthesis was performed in the same manner as described above except that 3-methyl-1-ethyl-5-pyrazolone was used instead of edaravone, then the obtained reaction solution was condensed, and the resultant was subjected to column purification to obtain colorless crystal of BisEp-C1 (H2) having the following physical properties. Note that BisEp-C1 (H2) was water-soluble.

[3] = tested on: rat neuroid cells B50; assay: Toxicity evaluation, cell viability by Alamar Blue after 24 hours; type: cell-based; conditions: 12.5, 25, 50, 100, or 200 μmol/l, FIG. 5
Method: Rat neuroid cells B50 were seeded in 12-well plates and then cultured. Edaravone (RC), ED2AP, or BisEp-C3 was added to each well so as to achieve a predetermined concentration (12.5, 25, 50, 100, or 200 μmol/l), and then incubated for 24 hours at 37° C. and 5% CO2. Cell viability in each well after the culture was measured using Alamar Blue.

[4] = tested on: rat neuroid cells B50; assay: Toxicity evaluation on byproducts after reaction with singlet oxygen, cell viability; type: cell-based; conditions: 50, 100, or 200 μmol/l reacted with RB + G-LED 525 nm in cell-free system; FIG. 6
Method: In a cell-free system, the RB was added to media (50% FCS-containing RPMI-1640 media) containing edaravone, ED2AP, and BisEp-C3 having a predetermined concentration (50, 100, or 200 μmol/l) and then irradiated with LED (G-LED) at 525 nm to generate singlet oxygen, whereby reacting each compound with singlet oxygen. The cell viability was measured in the same manner as in Example 7(1), except that the culture solution after the reaction was used as a medium of the neuroid cell B50. As a negative control (NC), the cell viability was measured in the same manner except that each compound and […] were not added in the cell-free system. Further, as a control (RB), the cell viability was measured in the same manner except that each compound was not added and only […] was added in the cell-free system.

| SMILES | Residual rate (%) After 1 week ([1]; Pure water) [%] | Residual rate (%) After 2 weeks ([1]; Pure water) [%] | Residual rate (%) Initial concentration ([1]; Pure water) [%] | Residual rate (%) After 1 week ([1]; pH 7.4-PBS) [%] | Residual rate (%) After 2 weeks ([1]; pH 7.4-PBS) [%] | Residual rate (%) Initial concentration ([1]; pH 7.4-PBS) [%] | solubility in water [2] | cytotoxicity (cell viability) [3] | cytotoxicity of the byproducts after reaction with singlet oxygen (cell viability) [4] |
| --- | --- | --- | --- | --- | --- | --- | --- | --- | --- |
| CCN1N=C(C)/C(=C\C=C\c2c(C)nn(CC)c2O)C1=O (racemic) [BisEp-C3, 2,4-dihydro-4-[3-(1-ethyl-5-hydroxy-3-methyl-1H-pyrazol-4-yl)-2-propen-1-ylidene]-2-ethyl-5-methyl-3H-pyrazol-3-one] | 99.4 | 88.5 | 100 | 98.7 | 93.6 | 100 | water-soluble | not cytotoxic at any concentration | not cytotoxic at any concentration |
| CC1=NN(c2ccccc2)C(=O)/C1=C/C=C/c1c(C)nn(-c2ccccc2)c1O (racemic) [ED2AP, 2,4-dihydro-4-[3-(5-hydroxy-3-methyl-1-phenyl-1H-pyrazol-4-yl)-2-propen-1-ylidene]-5-methyl-2-phenyl-3H-pyrazol-3-one] | 96.1 | 89.8 | 100 | 96.2 | 91.3 | 100 | water-soluble | not cytotoxic at any concentration | not cytotoxic at any concentration |
